In patent US20240252445A1, “COMPOSITIONS AND METHODS OF PROMOTING AC[…] […] AND DIAGNOSTIC AGENTS IN THE HEART” (CASE WESTERN RESERVE UNIVERSITY, priority 2021, published 2024):

Conditions: NBDG 1 mg/kg

With `O=[N+]([O-])c1ccc(N[C@H]2C(O)O[C@H](CO)[C@@H](O)[C@@H]2O)c2nonc12` (some centres unmarked) [NBDG] the NBDG fluorescence localisation (animals pre-injected with ePL, after organ perfusion) was “highly localized in the heart” and the “NBDG fluorescence in the heart in competition with unlabeled glucose” value (ePL pre-injected, unlabeled glucose 500 mg/kg) was “diminished”.
